In patent US8524738B2, “Quinolinones and quinoxalinones as antibacterial composition” (Toyama Chemical Co., Ltd., priority 2005, dated 2013):
Values after ≈ are worked out from the molar mass of the structure shown. Counter-ions that a name gives are not always drawn. Like-named read-outs stand apart in the source and are kept apart here.

Experiments:
Vero cells = assay: Cytotoxicity Test (XTT) on Vero cells; type: cell-based; settings: 51.2 μg/mL of test compound, 3 days at 37° C., XTT absorbance ratio of treated to untreated well
Procedure: Test compounds were initially dissolved in dimethylsulfoxide. […]. After incubation, absorbance was read at 450 nm and 655 nm in a spectrophotometric microplate reader. The values were expressed as the ratio between the value for the well treated with 51.2 μg/mL of each test compound and the value for the well untreated with the test compound (T/C).

[1] = test system: Staphylococcus aureus (S. aureus FDA209P); assay: Sensitivity Test 1: antibacterial activity (MIC) by micro-dilution method; type: cell-based
Procedure: (§1) Test compounds were initially dissolved in dimethylsulfoxide. Antibacterial activities (MICs) of the same compounds were determined by the micro-dilution method as recommended by the Japanese Society of Chemotherapy.
(§2) Staphylococcus aureus (S. aureus FDA209P) was used as the test organism. The bacterial cells were grown overnight at 35° C. on Mueller-Hinton agar (MHA) plates. The bacterial cells were then suspended in sterile saline and adjusted to the turbidity of a 0.5 McFarland standard. The inoculum was prepared by 10-fold dilution of this suspension. Approximately 0.005 mL aliquots of the inoculum prepared above were subsequently inoculated into Cation-adjusted Mueller-Hinton broth (CAMHB, 100 μL/well) including the test compounds for overnight incubation at 35° C.

[2] = test system: Methicillin-resistant Staphylococcus aureus (S. aureus F-3095); assay: Sensitivity Test 2: antibacterial activity (MIC) by micro-dilution method; type: cell-based
Procedure: as §1, §2
Methicillin-resistant Staphylococcus aureus (S. aureus F-3095) was used as the test organism. Antibacterial activities (MICs) were determined in the same manner as in Test Example 1.

S. aureus Smith = assay: Infection Test: mice infected intraperitoneally with S. aureus Smith; type: in vivo; settings: ICR mice, 5 per group; S. aureus Smith i.p.; 10 mg/kg subcutaneously once at 1 hour after infection; survivors recorded 3 days after infection
Procedure: S. aureus Smith which was grown overnight at 37° C. on Mueller-Hinton agar (MHA) plates were suspended to give a final concentration of 10^9 CFU/mL. The inoculum was prepared by diluting this suspension 10-fold in 1/15 mol/L phosphate buffer (pH 7) containing 5.6% mucin. ICR mice (4 to 4.5 weeks of age, male, 5 mice per group) were intraperitoneally administered with the inoculum (approximately 2×10^7 CFU per mice) to induce infection.
After dissolving the test compounds in 0.1 mol/L hydrochloric acid, 20% 2-hydroxypropyl-β-cyclodextrin (HP-β-CD) or a mixture of 20% HP-β-CD and 0.1 mol/L hydrochloric acid at a proportion of 1:1 was added to give a final concentration of 1 mg/mL. Each of the test compound solutions (10 mg/kg) was subcutaneously administered once to a group of mice at 1 hour after infection. The control group was administered with 10% HP-β-CD. The mice were observed daily and the number of surviving mice in each group was recorded 3 days after infection.

[3] = S. aureus FDA209P, CAMHB, overnight incubation at 35° C., lowest concentration with virtually no growth, read-out: MIC
[4] = Methicillin-resistant S. aureus F-3095, same manner as in Test Example 1, read-out: MIC

In the case of `O=c1ccc2ccccc2n1CCN1CCC(NCc2ccc3c(c2)OCCO3)CC1` [Example 63, 1-(2-(4-(2,3-dihydro-1,4-benzodioxin-6-ylmethyl)amino)piperidin-1-yl)ethyl)-quinolin-2(1H)one hydrochloride], the T/C (Vero cells) is reported as >50% and the MIC [1, 3] is reported as 0.0625 µg/mL.
For `CNC(=O)c1cc(=O)n(CCN2CCC(NCc3ccc(C)c(F)c3)CC2)c2cc(OC)ccc12` [Example 340, 1-(2-(4-(3-fluoro-4-methylbenzylamino)piperidin-1-yl)ethyl)-7-methoxy-N-methyl-2-oxo-1,2-dihydroquinoline-4-carboxamide hydrochloride], the T/C (Vero cells) was >50%, the MIC [2] was 0.0625 µg/mL and the MIC ([1]; FDA209P) was 0.0313 µg/mL. For the same compound, the “Number of surviving mice” value (S. aureus Smith) was 5.
With `COc1ccc2c(C)cc(=O)n(CCCC3(C(=O)O)CCN(CCSc4cccs4)CC3)c2c1` [Example 7, 4-(3-(7-methoxy-4-methyl-2-oxoquinolin-1(2H)-yl)propyl)-1-(2-(2-thienylthio)ethyl)piperidine-4-carboxylic acid] the T/C (Vero cells) was >50% and the MIC [1, 3] was 0.25 µg/mL (≈ 0.499 µM).
In the case of `Cc1ccc(CNC2CCN(CCn3c(=O)cnc4ccc(F)cc43)CC2)cc1F` [Example 367, 1-(2-(4-((3-fluoro-4-methylbenzyl)amino)piperidin-1-yl)ethyl)-7-fluoroquinoxalin-2(1H)-one hydrochloride], the T/C (Vero cells) is reported as >50%, the MIC [2] is reported as 0.0156 µg/mL and the MIC ([1]; FDA209P) is reported as 0.0156 µg/mL. The “Number of surviving mice” value (S. aureus Smith) was 5.
Compound `COc1ccc2ccc(=O)n(CCN3CCC(NCc4cc5c(cn4)OCCO5)CC3)c2c1` [Example 64, 1-(2-(4-((2,3-dihydro(1,4)dioxino(2,3-c)pyridin-7-ylmethyl)amino)piperidin-1-yl)ethyl)-7-methoxyquinolin-2(1H)-one] has an MIC [2, 4] of 0.0156 µg/mL (≈ 0.0346 µM) and an MIC [1, 3] of 0.0156 µg/mL (≈ 0.0346 µM).
With `COc1ccc2ncc(=O)n(CCN3CCC(NCc4ccc5c(c4)NC(=O)CS5)CC3)c2c1` [Example 91, 6-(((1-(2-(7-methoxy-2-oxoquinoxaline-1-(2H)-yl)ethyl)piperidin-4-yl)amino)methyl)-2H-1,4-benzothiazine-3(4H)-one] the MIC [2, 4] was 0.0313 µg/mL (≈ 0.0653 µM), the MIC [1, 3] was 0.0313 µg/mL (≈ 0.0653 µM) and the “Number of surviving mice” value (S. aureus Smith) was 5.
In the case of `Nc1cccc2c1ccc(=O)n2CCN1CCC(NCc2ccc3c(c2)OCCO3)CC1` [Example 263, 1-(2-(4-((2,3-dihydro-1,4-benzodioxin-6-ylmethyl)amino)piperidin-1-yl)ethyl)-5-aminoquinolin-2(1H)-one hydrochloride], the T/C (Vero cells) is reported as >50%, the MIC [2] is reported as 0.25 µg/mL and the MIC ([1]; FDA209P) is reported as 0.125 µg/mL. For the same compound, the “Number of surviving mice” value (S. aureus Smith) was 5.
`COc1ccc2ncc(=O)n(CCN3CCC(NCc4ccc5c(c4)OCCO5)CC3)c2c1` [Example 117, 1-(2-(4-((2,3-dihydro-1,4-benzodioxin-6-ylmethyl)amino)piperidin-1-yl)ethyl)-7-methoxyquinoxalin-2(1H)-one hydrochloride] was tested, and the MIC [2] was 0.0313 µg/mL, the MIC ([1]; FDA209P) was 0.0313 µg/mL and the “Number of surviving mice” value (S. aureus Smith) was 5.
In the case of `COc1ccc2ncc(=O)n(CCC3(O)CCC(NCc4cc5c(cn4)OCCO5)CC3)c2c1` (single isomer, unassigned) [389(B), 1-(2-(4-((2,3-dihydro(1,4)dioxino(2,3-c)pyridin-7-ylmethyl)amino)-1-hydroxycyclohexyl)ethyl)-7-methoxyquinoxalin-2(1H)-one], the T/C (Vero cells) is reported as >50%, the MIC [2, 4] is reported as 0.0625 µg/mL (≈ 0.134 µM) and the MIC [1, 3] is reported as 0.0156 µg/mL (≈ 0.0334 µM).
`CNC(=O)c1cc(=O)n(CCN2CCC(NCc3cc4ccccc4s3)CC2)c2cc(OC)ccc12` [Example 343, 1-(2-(4-((benzo[b]thiophen-2-yl)methylamino)piperidin-1-yl)ethyl)-7-methoxy-N-methyl-2-oxo-1,2-dihydroquinoline-4-carboxamide hydrochloride] gave an MIC ([1]; FDA209P) of 0.125 µg/mL.
In the case of `COc1ccc2c(C)cc(=O)n(CCN3CCC(NCc4ccc5c(c4)OCCO5)CC3)c2c1` [Example 2, 1-(2-(4-((2,3-dihydro-1,4-benzodioxin-6-ylmethyl)amino)piperidin-1-yl)ethyl)-7-methoxy-4-methylquinolin-2(1H)-one], the MIC [2] is reported as 0.0313 µg/mL (≈ 0.0675 µM), the MIC [1, 3] is reported as 0.0313 µg/mL (≈ 0.0675 µM) and the “Number of surviving mice” value (S. aureus Smith) is reported as 4.
`COc1ccc2c(C)cc(=O)n(CCC3(C(N)=O)CCC(NCc4ccc5c(c4)OCCO5)CC3)c2c1` (stereo not shown) [Example 155, 4-((2,3-dihydro-1,4-benzodioxin-6-ylmethyl)amino)-1-(2-(7-methoxy-4-methyl-2-oxoquinolin-1(2H)-yl)ethyl)cyclohexanecarboxamide] showed an MIC [1, 3] of 0.125 µg/mL (≈ 0.247 µM).
Work on `COc1ccc2ncc(=O)n(CCN3CCC(NCc4ccc5ccccc5c4)CC3)c2c1` [Example 356, 7-methoxy-1-(2-(4-((naphthalen-2-yl)methylamino)piperidin-1-yl)ethyl)quinoxalin-2(1H)-one hydrochloride] yielded an MIC ([1]; FDA209P) of 0.0156 µg/mL.
Work on `O=c1cnc2ccc(F)cc2n1CCN1CCC(NCc2ccc3c(c2)OCCO3)CC1` [Example 346, (1-(2-(4-((2,3-dihydro-1,4-benzodioxin-6-ylmethyl)amino)piperidin-1-yl)ethyl)-7-fluoroquinoxalin-2(1H)-one hydrochloride] yielded an MIC [1, 3] of 0.0156 µg/mL.
`O=c1cnc2ccccc2n1CCN1CCC(NCc2ccc3c(c2)OCCO3)CC1` [Example 28, 1-(2-(4-((2,3-dihydro-1,4-benzodioxin-6-ylmethyl)amino)piperidin-1-yl)ethyl)quinoxalin-2(1H)-one hydrochloride] gave an MIC ([1]; FDA209P) of 0.0625 µg/mL.
Compound `COc1ccc2ncc(=O)n(CCN3CCC(NCc4ccc5c(c4)SCCS5)CC3)c2c1` [Example 370, 1-(2-(4-((2,3-dihydro-1,4-benzodithiin-6-ylmethyl)amino)piperidin-1-yl)ethyl)-7-methoxyquinoxalin-2(1H)-one hydrochloride] has an MIC ([1]; FDA209P) of 0.0039 µg/mL.
For `Cc1cc(=O)n(CCN2CCC(NCc3ccc4c(c3)OCCO4)CC2)c2cc(OC3CC3)ccc12` [Example 129, 7-cyclopropoxy-1-(2-(4-((2,3-dihydro-1,4-benzodioxin-6-ylmethyl)amino)piperidin-1-yl)ethyl)-4-methylquinolin-2(1H)-one hydrochloride], the MIC ([1]; FDA209P) was 0.0625 µg/mL.
`COc1ccc2ncc(=O)n(CCN3CCC(NCc4ccc5c(n4)NC(=O)CS5)CC3)c2c1` [Example 179, 6-(((1-(2-(7-methoxy-2-oxoquinoxalin-1(2H)-yl)ethyl)piperidin-4-yl)amino)methyl)-2H-pyrido(3,2-b)(1,4)thiazin-3(4H)-one] was tested, and the MIC [2, 4] was 0.0313 µg/mL (≈ 0.0651 µM), the MIC [1, 3] was 0.0156 µg/mL (≈ 0.0325 µM) and the “Number of surviving mice” value (S. aureus Smith) was 5.
With `CNC(=O)C1CN(CCn2c(=O)ccc3ccc(OC)cc32)CCC1NCc1ccc2c(c1)OCCO2` (single isomer, unassigned) [Example 176, 4-((2,3-dihydro-1,4-benzodioxin-6-ylmethyl)amino)-1-(2-(7-methoxy-2-oxoquinolin-1(2H)-yl)ethyl)-N-methylpiperidine-3-carboxamide] the MIC [1, 3] was 0.0625 µg/mL (≈ 0.123 µM).
In the case of `CNC(=O)c1cc(=O)n(CCN2CCC(NCc3ccc(C(F)(F)F)c(F)c3)CC2)c2cc(OC)ccc12` [Example 182, 1-(2-(4-((3-fluoro-4-(trifluoromethyl)benzyl)amino)piperidin-1-yl)ethyl)-7-methoxy-N-methyl-2-oxo-1,2-dihydroquinoline-4-carboxamide], the MIC [1, 3] is reported as 0.0625 µg/mL (≈ 0.117 µM).
`Cc1cc(=O)n(CCN2CCC(NCc3ccc4c(c3)OCCO4)CC2)c2cc(Cl)ccc12` [Example 107, 7-chloro-1-(2-(4-((2,3-dihydro-1,4-benzodioxin-6-ylmethyl)amino)piperidin-1-yl)ethyl)-4-methylquinolin-2(1H)-one hydrochloride] showed an MIC ([1]; FDA209P) of 0.0313 µg/mL.
`O=c1cnc2ccc(F)cc2n1CCN1CCC(NCc2cc(-c3cccs3)on2)CC1` [Example 351, 7-fluoro-1-(2-(4-((5-(thiophen-2-yl)isoxazol-3-yl)methylamino)piperidin-1-yl)ethyl)quinoxalin-2(1H)-one hydrochloride] showed an MIC ([1]; FDA209P) of 0.0078 µg/mL.
With `Cc1cc(=O)n(CCN2CCC(NCc3ccc4c(c3)OCCO4)CC2)c2cc(F)ccc12` [Example 109, 1-(2-(4-((2,3-dihydro-1,4-benzodioxin-6-ylmethyl)amino)piperidin-1-yl)ethyl)-7-fluoro-4-methylquinolin-2(1H)-one hydrochloride] the MIC ([1]; FDA209P) was 0.125 µg/mL.
`O=c1cnc2ccc(F)cc2n1CCN1CCC(NCc2cc3ccccc3s2)CC1` [Example 349, 1-(2-(4-((benzo[b]thiophen-2-yl)methylamino)piperidin-1-yl)ethyl)-7-fluoroquinoxalin-2(1H)-one hydrochloride] showed an MIC ([1]; FDA209P) of 0.0156 µg/mL.
